Results published in PMC7885310 (3 Biotech, 2021).

System: Gram-positive and Gram-negative bacteria
Assay: In vitro antibacterial assay, pooled statement over all tested strains
Assay type: cell-based, S. aureus, B. subtilis, S. typhi, E. coli

## O=c1c(O)c(-c2ccc(O)c(O)c2)oc2cc(O)cc(O)c12 [Compound 1, quercetin]
  MIC: 0.0692 to 0.151 µM

## O=c1c(O)c(-c2ccc(O)cc2)oc2cc(O)cc(O)c12 [Compound 3, kaempferol]
  MIC: > 100 µg/mL
